Measured values as given in patent publication US12491170B2, “Stable treprostinil prodrugs” (United Therapeutics Corporation, priority 2020, dated 2025).
Read-outs that look alike come from different tables or passages of the source.

Key:
[1] = Stability in liver microsomes, human; conditions: for AUC: human
Procedure: (§1) Mixed-gender human liver microsomes, male Sprague-Dawley rat liver microsomes, and male Beagle dog liver microsomes were purchased from XenoTech. The reaction mixture, minus NADPH, was prepared as described below. […] An aliquot of the reaction mixture (without cofactor) was equilibrated in a shaking water bath at 37° C. for 5 minutes. The reaction was initiated by the addition of cofactor, and the mixture was incubated in a shaking water bath at 37° C. Aliquots (200 μL) were withdrawn at 0, 10, 20, 30, and 60 minutes. Test article samples were immediately combined with 400 μL of ice-cold acetonitrile (ACN) to terminate the reaction. […] The samples were then mixed and centrifuged to precipitate proteins. Aliquots of the supernatant were removed, diluted 1:1 into distilled water containing internal standard, and analyzed by LC-MS/MS against calibration standards prepared in a matched matrix. All samples were analyzed for the dosed prodrugs as well as the drug, treprostinil. The test article concentration was compared to the concentration at time 0 to determine the percent of test article remaining at each time point. Half-lives and clearance were calculated using GraphPad software, fitting to a single-phase exponential decay equation.
(§2) • Liver Microsomes 0.5 mg/mL • NADPH (cofactor) 1 mM • Potassium Phosphate, pH 7.4 100 mM • Magnesium Chloride 5 mM • Test Article 1 μM

[2] = Stability in liver microsomes, rat
Procedure: as §1, §2

[3] = Stability in liver microsomes, dog
Procedure: as §1, §2

[4] = Stability in cryopreserved hepatocytes, human; conditions: for AUC: human
Procedure: (§3) Mixed-gender human cryopreserved hepatocytes, male Sprague-Dawley rat cryopreserved hepatocytes, and male Beagle dog cryopreserved hepatocytes were purchased from XenoTech. The hepatocytes were thawed and prepared according to the vendor's instructions, pooled into Krebs Henseleit buffer (KHB, pH 7.4), and kept on ice prior to the experiments. […] The final DMSO content in the incubation mixture was ≤0.1%. […] Aliquots of the test article were withdrawn (n=1) at 0, 15, 30, 60, and 120 minutes. […] Aliquots of 7-HC were withdrawn (n=1) at 0 and 15 minutes. The reaction was immediately terminated by adding two volumes of ice-cold acetonitrile (ACN) to the test article samples and three volumes of ACN containing internal standard to the positive control samples. The samples were then mixed and centrifuged to precipitate proteins. An aliquot of the supernatant was then diluted with water and analyzed by LC-MS/MS against calibration standards prepared in a matched matrix. […] All test article samples were analyzed for the dosed prodrugs as well as the drug, treprostinil. The test article concentration was compared to the concentration at time 0 to determine the percent of test article remaining at each time point. Half-lives and clearance values were calculated using GraphPad software, fitting to a single-phase exponential decay equation.

[5] = Stability in cryopreserved hepatocytes, rat; conditions: for AUC: rat
Procedure: as §3

[6] = Stability in cryopreserved hepatocytes, dog; conditions: for AUC: dog
Procedure: as §3

[7] = rat
[8] = dog

SMILES | Trep Concentration 0 min [1] [µM] | Trep Concentration 10 min [1] [µM] | Trep Concentration 20 min [1] [µM] | Trep Concentration 30 min [1] [µM] | Trep Concentration 60 min [1] [µM] | AUC [1] [µmol·min/L] | Trep Concentration 0 min [2] [µM] | Trep Concentration 10 min [2] [µM] | Trep Concentration 20 min [2] [µM] | Trep Concentration 30 min [2] [µM] | Trep Concentration 60 min [2] [µM] | Trep Concentration 0 min [3] [µM] | Trep Concentration 10 min [3] [µM] | Trep Concentration 20 min [3] [µM] | Trep Concentration 30 min [3] [µM] | Trep Concentration 60 min [3] [µM] | Trep Concentration (μM) 0 min [4] [µM] | Trep Concentration (μM) 15 min [4] [µM] | Trep Concentration (μM) 30 min [4] [µM] | Trep Concentration (μM) 60 min [4] [µM] | other results
CCCCCC(CCC1C(O)CC2Cc3c(cccc3OCC(=O)O)CC21)OC(=O)NCCO (stereo not drawn) [LIX] | 0 | 0 | 0 | 0 | 0 | 0.00 | 0 | 0 | 0 | 0 | 0 | 0 | 0 | 0 | 0 | 0 | 0 | 0 | 0 | 0 | Trep Concentration (μM) 120 min [4]: 0 µM; AUC [4]: 0.00 µmol·min/L; Trep Concentration (μM) 0 min [5]: 0 µM; Trep Concentration (μM) 15 min [5]: 0 µM; Trep Concentration (μM) 30 min [5]: 0 µM; Trep Concentration (μM) 60 min [5]: 0 µM; Trep Concentration (μM) 120 min [5]: 0 µM; AUC [5]: 0.00 µmol·min/L; Trep Concentration (μM) 0 min [6]: 0 µM; Trep Concentration (μM) 15 min [6]: 0 µM; Trep Concentration (μM) 30 min [6]: 0.00416 µM; Trep Concentration (μM) 60 min [6]: 0.00836 µM; Trep Concentration (μM) 120 min [6]: 0.00907 µM; AUC [6]: 0.74 µmol·min/L; AUC [7]: 0.00 µmol·min/L; AUC [8]: 0.00 µmol·min/L
CCCCCC(CCC1C(O)CC2Cc3c(cccc3OCC(=O)O)CC21)OC(=O)N1CCC(O)CC1 (stereo not drawn) [LVIII] | 0 | 0 | 0 | 0 | 0 | 0.00 | 0 | 0 | 0 | 0 | 0 | 0 | 0 | 0 | 0 | 0 | 0 | 0 | 0 | 0 | Trep Concentration (μM) 120 min [4]: 0 µM; AUC [4]: 0.00 µmol·min/L; Trep Concentration (μM) 0 min [5]: 0 µM; Trep Concentration (μM) 15 min [5]: 0 µM; Trep Concentration (μM) 30 min [5]: 0 µM; Trep Concentration (μM) 60 min [5]: 0 µM; Trep Concentration (μM) 120 min [5]: 0 µM; AUC [5]: 0.00 µmol·min/L; Trep Concentration (μM) 0 min [6]: 0 µM; Trep Concentration (μM) 15 min [6]: 0 µM; Trep Concentration (μM) 30 min [6]: 0.00519 µM; Trep Concentration (μM) 60 min [6]: 0.00214 µM; Trep Concentration (μM) 120 min [6]: 0.00344 µM; AUC [6]: 0.32 µmol·min/L; AUC [7]: 0.00 µmol·min/L; AUC [8]: 0.00 µmol·min/L

Further lines, with some results ahead:

Trep Concentration 0 min [1] [µM] | Trep Concentration 10 min [1] [µM] | Trep Concentration 20 min [1] [µM] | Trep Concentration 30 min [1] [µM] | Trep Concentration 60 min [1] [µM] | AUC [1] [µmol·min/L] | Trep Concentration 0 min [2] [µM] | Trep Concentration 10 min [2] [µM] | Trep Concentration 20 min [2] [µM] | Trep Concentration 30 min [2] [µM] | Trep Concentration 60 min [2] [µM] | Trep Concentration 0 min [3] [µM] | Trep Concentration 10 min [3] [µM] | Trep Concentration 20 min [3] [µM] | Trep Concentration 30 min [3] [µM] | Trep Concentration 60 min [3] [µM] | Trep Concentration (μM) 0 min [4] [µM] | Trep Concentration (μM) 15 min [4] [µM] | Trep Concentration (μM) 30 min [4] [µM] | Trep Concentration (μM) 60 min [4] [µM] | SMILES | other results
0 | 0 | 0 | 0 | 0 | 0.00 | 0 | 0 | 0 | 0 | 0 | 0 | 0 | 0.00553 | 0.003 | 0 | 0 | 0 | 0 | 0 | CCCCCC1CCC2C(CC3Cc4c(cccc4OCC(=O)O)CC32)OP(=O)(Oc2ccccc2)O1 (mixture of isomers) [XXVIII] | Trep Concentration (μM) 120 min [4]: 0 µM; AUC [4]: 0.00 µmol·min/L; Trep Concentration (μM) 0 min [5]: 0 µM; Trep Concentration (μM) 15 min [5]: 0 µM; Trep Concentration (μM) 30 min [5]: 0 µM; Trep Concentration (μM) 60 min [5]: 0 µM; Trep Concentration (μM) 120 min [5]: 0 µM; AUC [5]: 0.00 µmol·min/L; Trep Concentration (μM) 0 min [6]: 0 µM; Trep Concentration (μM) 15 min [6]: 0 µM; Trep Concentration (μM) 30 min [6]: 0 µM; Trep Concentration (μM) 60 min [6]: 0 µM; Trep Concentration (μM) 120 min [6]: 0.00339 µM; AUC [6]: 0.10 µmol·min/L; AUC [7]: 0.00 µmol·min/L; AUC [8]: 0.11 µmol·min/L
0 | 0 | 0 | 0 | 0 | 0.00 | 0 | 0 | 0 | 0 | 0 | 0 | 0 | 0 | 0 | 0 | 0 | 0 | 0 | 0 | CCCCCC(CCC1C(O)CC2Cc3c(cccc3OCC(=O)O)CC21)OCC(=O)O (stereo not drawn) [LVII] | Trep Concentration (μM) 120 min [4]: 0 µM; AUC [4]: 0.00 µmol·min/L; Trep Concentration (μM) 0 min [5]: 0 µM; Trep Concentration (μM) 15 min [5]: 0 µM; Trep Concentration (μM) 30 min [5]: 0 µM; Trep Concentration (μM) 60 min [5]: 0 µM; Trep Concentration (μM) 120 min [5]: 0 µM; AUC [5]: 0.00 µmol·min/L; Trep Concentration (μM) 0 min [6]: 0 µM; Trep Concentration (μM) 15 min [6]: 0 µM; Trep Concentration (μM) 30 min [6]: 0 µM; Trep Concentration (μM) 60 min [6]: 0 µM; Trep Concentration (μM) 120 min [6]: 0 µM; AUC [6]: 0.00 µmol·min/L; AUC [7]: 0.00 µmol·min/L; AUC [8]: 0.00 µmol·min/L
0 | 0 | 0 | 0 | 0 | 0.00 | 0 | 0 | 0 | 0 | 0 | 0 | 0 | 0.003 | 0 | 0 | 0 | 0 | 0 | 0 | CCCCCC(CCC1C(O)CC2Cc3c(cccc3OCC(=O)O)CC21)Oc1ccccc1C(=O)O (stereo not drawn) [LVI] | Trep Concentration (μM) 120 min [4]: 0 µM; AUC [4]: 0.00 µmol·min/L; Trep Concentration (μM) 0 min [5]: 0 µM; Trep Concentration (μM) 15 min [5]: 0 µM; Trep Concentration (μM) 30 min [5]: 0 µM; Trep Concentration (μM) 60 min [5]: 0 µM; Trep Concentration (μM) 120 min [5]: 0 µM; AUC [5]: 0.00 µmol·min/L; Trep Concentration (μM) 0 min [6]: 0 µM; Trep Concentration (μM) 15 min [6]: 0.005 µM; Trep Concentration (μM) 30 min [6]: 0.005 µM; Trep Concentration (μM) 60 min [6]: 0.003 µM; Trep Concentration (μM) 120 min [6]: 0 µM; AUC [6]: 0.00 µmol·min/L; AUC [7]: 0.00 µmol·min/L; AUC [8]: 0.00 µmol·min/L
